Results: paper PMC5809414, “Physician-initiated clinical study of limb ulcers treated with a functional peptide, SR-0379: from discovery to a randomized, double-blind, placebo-controlled trial” (NPJ Aging and Mechanisms of Disease, 2018)
Values joined by “and” are separate entries in the source; they are usually repeats but may differ in a detail not shown here. Equal entries are not always repeated. Where two headings read alike, the source gives them in different places. Where a SMILES comes first, the peptide text is derived from it. [ ]: non-standard residue; d: D form.

Columns and labels:
infected wound = details: rat infected wound model, compared with FGF2; cited from earlier work
[1] = Safety evaluation (adverse events) in the clinical study; type: in vivo, human
Description: (§1) The primary outcome was the rate of wound size reduction at 4 weeks after the first treatment compared with pre-treatment wound size. Additionally, the following secondary endpoints were measured at 4 weeks after the first treatment and compared with pre-treatment status: time to wound closure; 50% wound size reduction ratio; quantification of Pseudomonas aeruginosa, Staphylococcus aureus, MRSA, and Streptococcus pyogenes; and overall evaluated ulcer improvement. Ulcer size was quantified based on skin ulcer pictures according to a defined procedure using ImageJ software and calculated as the percent change. We also used the DESIGN-R score index, which is calculated based on six components (exudate, size, infection/inflammation, granulation tissue, necrotic tissue, and pocket size), as a tool to score pressure ulcer severity.[23] Depth was excluded from the calculation. The total score was calculated by weighting the score of each item; a high score indicates greater severity. The safety of SR-0379 was evaluated during the treatment period (28 days) every 7 days and post-treatment (7 days) according to the Common Terminology Criteria for Adverse Events (version 4.0).

healthy men = system: healthy men; design: species or system human; details: in vivo
Description: A closed patch test was performed with SR-0379 at Shinanozaka Clinic (Shinjuku, Tokyo, Japan); the study protocol was approved by the Shinanozaka Clinic institutional review board. The registry number is UMIN000015391, and the URL is https://upload.umin.ac.jp/cgi-open-bin/ctr_e/ctr_view.cgi?recptno=R000017479. Sixty-six men were screened after obtaining informed consent, and a total of 20 healthy men were enrolled for the patch test after obtaining informed consent between October and November 2014. The inclusion criteria for healthy men were: (1) adult age (≧20 years and ≦40 years); (2) body mass index (≧18.5 and <25.0 kg/m^2); and (3) systolic blood pressure (SBP, ≦140 mmHg) and diastolic blood pressure (DBP, ≦90 mmHg); additionally, patients were to be within normal limits in an ECG test. The exclusion criteria were drug allergy or a history thereof, atopic dermatitis or allergic contact dermatitis, skin with dermatitis or inflammation, organ failure (heart, liver, kidney, blood), and others. The closed patch test was performed with a Finn chamber (7 mm) using filter paper containing 0.015 mL of SR-0379 solution (0%, 0.02%, 0.1%, 0.25%, or 0.5%). The allocation was generated by a coordinator and masked for the evaluator. […] Results were evaluated at 1 and 24 h after removal and graded according to the International Contact Dermatitis Research Group criteria (grades 1–6). […]

leg ulcers = experiment: Phase I/IIa randomized, double-blind, placebo-controlled study: wound size, closure, DESIGN-R, overall improvement; type: in vivo, human; details: for skin ulcer rate of reduction at the final evaluation (4th week or discontinuation): vs pre-treatment wound size, mean ± SD; for skin ulcer rate of reduction at the final evaluation (4th week or discontinuation) / Overall improvement, Mild: number of patients / Overall improvement, Moderate: number of patients / Overall improvement, No change: number of patients / Overall improvement, Worse: number of patients / Skin ulcer size, 2 weeks after treatment (mean ± SD) / Skin ulcer size, Post-treatment (mean ± SD) / Wound closure, Yes: number of patients (%) / DESIGN-R total score, Post-mean (SD) / Overall improvement, Significant: number of patients: n = 3; for DESIGN-R total score, Pre-mean (SD): n = 3, baseline; for DESIGN-R total score, Pre-mean (SD) / DESIGN-R total score, Post-mean (SD): depth excluded, 0 (healed) to 66; for Overall improvement, Significant: number of patients: evaluation by investigators
Description: GMP-grade SR-0379 peptide was generated by the American Peptide Company (Torrance, CA, USA). The peptide was dissolved in a physiological salt solution, and spray-type containers were charged with 10 mL of SR-0379 solution under GMP conditions by Nagase Medical Co. Ltd. (Itami, Hyogo, Japan). A total of 0.05 mL of SR-0379 solution was administered per spray using this container. According to the protocol, each patient received 0.25 mL of SR-0379 solution over five sprays once per day for 28 days.
The clinical trial was conducted as an investigator-initiated, phase I/IIa, randomized, double-blind, placebo-controlled trial at five hospitals (Osaka University Hospital, Osaka; Chiba University Hospital, Chiba; Asano-Kanamachi Clinic, Tokyo; Medical Plaza Shinozakieki Nishiguchi, Tokyo; and Kasukabe Chuo General Hospital, Saitama) in Japan. Twelve patients were randomized into four groups and treated with 0.02%, 0.1%, or 0.5% SR-0379 or placebo treatment. The inclusion criteria for this clinical trial were: (1) adult (age≧20 years), (2) a diagnosis of diabetic ulcer or limb ulcer (artery or venous ulcer); and (3) wound size <6 cm in diameter. Exclusion criteria is (1) infection to be cured with antibiotics, (2) deep ulcer with reaching bone tissue, (3) skin ulcer with malignant tumor, (4) severe edema around skin ulcer, (5) patients with malignant tumor, (6) patients with severe heart failure, (7) patients with severe liver, kidney, and blood dysfunction, (8) malnutrition (serum albumin ≦2 g/dL), (9) poor general condition due to severe systemic infection, (10) poor control of hyperglycemia (HbA1c ≧9.0%), (11) pregnant women, and men or women who disagreed to avoid pregnancy during clinical trial period, (12) patients who changed from an oral to an intravenous drug to regulate blood flow (i.e., prostaglandin E1, prostacyclin I2) from 2 weeks before SR-0379 or placebo treatment, (13) surgical procedure for skin ulcer from 2 weeks before SR-0379 or placebo treatment, (14) attendance to other clinical trial from 12 weeks before SR-0379 or placebo treatment, and (15) judgment as an inappropriate patient by principle investigator. The study protocol was approved by the institutional review board of each hospital. Patients gave written informed consent before enrollment.
Twelve patients were randomized into four groups and treated with 0.02%, 0.1,% or 0.5% SR-0379 or placebo treatment. The allocation was generated by a computer program before starting the initial enrollment, and the allocation coordinator concealed the allocation information until the last patient finished. The placebo drug was indistinguishable in terms of appearance. The trial drugs were distributed to each hospital according to the allocation schedule for each patient. All study personnel and patients were masked to treatment group allocation.
SR-0379 (0.02%, 0.1%, and 0.5%) or placebo was topically administered after cleaning with soap once per day for 28 days. After treatment, the wound was covered with a piece of gauze. […] No topical wound healing drugs were used in combination with SR-0379 or placebo for the same skin ulcer, and the topical use of FGF2 (trafermin) was prohibited starting 2 weeks before treatment through the final treatment.
Upon study entry, clinical assessments, skin ulcer evaluations, blood and urine tests, chest radiographs, and ECGs were performed 1 week before treatment. Prior to the first treatment, clinical assessments and skin ulcer evaluations were performed, and plasma SR-0379 levels were measured at 15 and 60 min after the first treatment. After treatment, clinical assessments, skin ulcer evaluation, blood and urine tests, and ECGs were performed, and plasma SR-0379 levels were measured at 15 and 60 min after the final treatment. During the follow-up period (1 week after treatment), patients received appropriate treatment, including FGF2 (trafermin). […]

[2] = system: endothelial cell and fibroblast; details: in vitro; cited from earlier work
Description: SR-0379 also promoted angiogenesis, granulation tissue formation, and endothelial cell and fibroblast proliferation in vitro. In this study, we conducted a multi-center, double-blinded, randomized phase I/IIa clinical study to evaluate the safety, efficacy, and pharmacokinetics of SR-0379 for the treatment of leg ulcers.

[3] = system: Pseudomonas aeruginosa, Staphylococcus aureus, MRSA, and Streptococcus pyogenes; experiment: Bacterial wound cultures (change pre to post); type: in vivo, human; details: n = 3
Description: as §1

venous leg ulcers = details: cited from earlier work
Description: Recently, another anti-microbial peptide, LL-37, was similarly evaluated for venous leg ulcers.[26] The study design consisted of a 4-week randomized double-blind t ...

Molecule: CC[C@H](C)[C@H](NC(=O)[C@H](CC(C)C)NC(=O)[C@H](CCCCN)NC(=O)[C@H](CC(C)C)NC(=O)[C@@H](N)CCSC)C(=O)N[C@@H](Cc1ccccc1)C(=O)N[C@@H](CC(C)C)C(=O)N[C@@H](Cc1c[nH]cn1)C(=O)N[C@@H](CCCNC(=N)N)C(=O)N[C@@H](CC(C)C)C(=O)N[C@@H](CCCCN)C(=O)N[C@@H](CCCNC(=N)N)C(=O)N[C@@H](CCSC)C(=O)N[C@@H](CCCNC(=N)N)C(=O)N[C@@H](CCCCN)C(=O)N[C@@H](CCCNC(=N)N)C(=O)N[C@@H](CC(C)C)C(=O)N[C@H](CCCCN)C(=O)N[C@@H](CCCNC(=N)N)C(=O)N[C@@H](CCCCN)C(=O)O [SR-0379] (H-MLKLIFLHRLKRMRKRL[dK]RK-OH; N-terminus and C-terminus assumed)
- wound healing effect (infected wound): higher than that of fibroblast growth factor 2 (FGF2)
- Adverse event: Outcome ([1]; 0.5% SR-0379, person, pneumonia): Death
- Adverse event: Causality ([1]; human, in vivo): No
- local adverse events such as itching, rash, or pain during treatment ([1]; human, in vivo): no local adverse events
- relation of all adverse events to SR-0379 treatment ([1]; human, in vivo): unrelated
- skin irritation index scores, assessment (healthy men): within permitted levels for clinical usage
- vital signs and electrocardiogram (ECG) (healthy men): no abnormal findings
- Size reduction (percent decrease) of skin ulcers, mean (leg ulcers; 0.02% SR-0379, 2 weeks after treatment): -3.157%
- Size decrease, single patient (leg ulcers; 0.02% SR-0379, diabetic ulcer, foot (lateral malleolus), Werner Syndrome patient): 61.45%
- Size decrease, single patient (leg ulcers; 0.02% SR-0379, diabetic ulcer, low leg): 75.00%
- Size decrease, single patient (leg ulcers; 0.02% SR-0379, ischemic ulcer, finger): -2.27%
- skin ulcer rate of reduction at the final evaluation (4th week or discontinuation) (leg ulcers; 0.02% SR-0379 topical once per day for 28 days): 44.73 ± 41.26% and 44.727%
- Overall improvement, Mild: number of patients (leg ulcers; 0.02% group): 1
- Overall improvement, Moderate: number of patients (leg ulcers; 0.02% group): 1
- Overall improvement, No change: number of patients (leg ulcers; 0.02% group): 0
- Overall improvement, Worse: number of patients (leg ulcers; 0.02% group): 1
- Skin ulcer size, 2 weeks after treatment (mean ± SD) (leg ulcers; 0.02% group): 0.777 ± 0.783
- Skin ulcer size, Post-treatment (mean ± SD) (leg ulcers; 0.02% group): 0.563 ± 0.698
- Wound closure, Yes: number of patients (%) (leg ulcers; 0.02% group): 0 (0%)
- DESIGN-R total score, Pre-mean (SD) (leg ulcers; 0.02% group): 9.3 (4.7)
- DESIGN-R total score, Post-mean (SD) (leg ulcers; 0.02% group): 4.3 (1.5)
- Overall improvement, Significant: number of patients (leg ulcers; 0.02% group): 1
- Size reduction (percent decrease) of skin ulcers, mean (leg ulcers; 0.1% SR-0379, 2 weeks after treatment): 38.36%
- Size decrease, single patient (leg ulcers; 0.1% SR-0379, diabetic ulcer, foot (heel), Werner Syndrome patient): 34.93%
- Size decrease, single patient (leg ulcers; 0.1% SR-0379, diabetic ulcer, foot, patient with skin abrasion): 87.50%
- Size decrease, single patient (leg ulcers; 0.1% SR-0379, ischemic ulcer, finger): 82.32%
- skin ulcer rate of reduction at the final evaluation (4th week or discontinuation) (leg ulcers; 0.1% SR-0379 topical once per day for 28 days): 68.25 ± 28.98% and 68.247%
- Overall improvement, Mild: number of patients (leg ulcers; 0.1% group): 1
- Overall improvement, Moderate: number of patients (leg ulcers; 0.1% group): 1
- Overall improvement, No change: number of patients (leg ulcers; 0.1% group): 0
- Overall improvement, Worse: number of patients (leg ulcers; 0.1% group): 0
- Skin ulcer size, 2 weeks after treatment (mean ± SD) (leg ulcers; 0.1% group): 0.320 ± 0.381
- Skin ulcer size, Post-treatment (mean ± SD) (leg ulcers; 0.1% group): 0.473 ± 0.488
- Wound closure, Yes: number of patients (%) (leg ulcers; 0.1% group): 0 (0%)
- DESIGN-R total score, Pre-mean (SD) (leg ulcers; 0.1% group): 9.0 (1.0)
- DESIGN-R total score, Post-mean (SD) (leg ulcers; 0.1% group): 5.3 (4.0)
- Overall improvement, Significant: number of patients (leg ulcers; 0.1% group): 1
- Size reduction (percent decrease) of skin ulcers, mean (leg ulcers; 0.5% SR-0379, 2 weeks after treatment): 14.443%
- Size decrease, single patient (leg ulcers; 0.5% SR-0379, diabetic ulcer, foot, complete ulcer closure): 100%
- Size decrease, single patient (leg ulcers; 0.5% SR-0379, venous ulcer, low leg): 14.84%
- skin ulcer rate of reduction at the final evaluation (4th week or discontinuation) (leg ulcers; 0.5% SR-0379 topical once per day for 28 days): 71.61 ± 49.17% and 71.613%
- Overall improvement, Mild: number of patients (leg ulcers; 0.5% group): 0
- Overall improvement, Moderate: number of patients (leg ulcers; 0.5% group): 3
- Overall improvement, No change: number of patients (leg ulcers; 0.5% group): 0
- Overall improvement, Worse: number of patients (leg ulcers; 0.5% group): 0
- Skin ulcer size, 2 weeks after treatment (mean ± SD) (leg ulcers; 0.5% group): 1.910 ± 3.179
- Skin ulcer size, Post-treatment (mean ± SD) (leg ulcers; 0.5% group): 1.760 ± 3.048
- DESIGN-R total score, Pre-mean (SD) (leg ulcers; 0.5% group): 12.0 (7.2)
- DESIGN-R total score, Post-mean (SD) (leg ulcers; 0.5% group): 5.3 (5.1)
- Overall improvement, Significant: number of patients (leg ulcers; 0.5% group): 0
- angiogenesis, granulation tissue formation, and endothelial cell and fibroblast proliferation [2]: promoted
- Bacterial wound cultures, Decrease: number of patients ([3]; 0.02% group): 2
- Bacterial wound cultures, Increase: number of patients ([3]; 0.02% group): 1
- Bacterial wound cultures, No change: number of patients ([3]; 0.02% group): 0
- Bacterial wound cultures, Decrease: number of patients ([3]; 0.1% group): 2
- Bacterial wound cultures, Increase: number of patients ([3]; 0.1% group): 0
- Bacterial wound cultures, No change: number of patients ([3]; 0.1% group): 1
- Bacterial wound cultures, Decrease: number of patients ([3]; 0.5% group): 1
- Bacterial wound cultures, Increase: number of patients ([3]; 0.5% group): 0
- Bacterial wound cultures, No change: number of patients ([3]; 0.5% group): 1

Molecule: LL-37
- healing rate constants (venous leg ulcers; 0.5 mg/mL LL-37, 4-week treatment, p = 0.003 vs placebo): higher than those for placebo
- healing rate constants (venous leg ulcers; 1.6 mg/mL LL-37, 4-week treatment, p = 0.088 vs placebo): higher than those for placebo
